Assay: in vitro
Details: human, hela cells, % viability

Compound	viability at 28.5 h, 10 µM [%]
COc1nc(N)nc2c1ccn2C1CC(O)C(CO)O1 (stereo not drawn) [CBK201177]	98.6
CC#Cc1cn([C@H]2C[C@@H](O)[C@@H](CO)O2)c(=O)[nH]c1=O [CBK201182]	104
Cc1cc(C)c(Oc2nc(=O)n([C@H]3C[C@@H](O)[C@@H](CO)O3)cc2F)c(C)c1 [CBK201184]	96.4
Cc1nn([C@H]2C[C@@H](O)[C@@H](CO)O2)c(=O)[nH]c1=O [CBK201185]	97.3
O=c1[nH]cnc2c1ncn2[C@@H]1O[C@H](CO)[C@H](O)C1O (stereo partly drawn) [CBK201186]	98.3
CCNc1nc2c(ncn2C2CC(O)C(CO)O2)c(=O)[nH]1 (stereo not drawn) [CBK201189]	99.6
Nc1nc2c([C@H]3C[C@@H](O)[C@@H](CO)O3)c[nH]c2c(=O)[nH]1 [CBK201194]	102
Nc1cc2c(ncn2[C@@H]2C[C@@H](O)[C@@H](CO)O2)c(=O)[nH]1 [CBK201196]	88.1
Cc1cn([C@H]2C[C@@H](O)[C@@H](CI)O2)c(=O)[nH]c1=O [CBK201197]	96.9
CC(C)CNc1nc2c(ncn2[C@H]2C[C@@H](O)[C@@H](CO)O2)c(=O)[nH]1 [CBK201198]	94.8
Cc1cn(C2CC(O)C(CO)O2)c(=O)nc1SCCC#N (stereo not drawn) [CBK201201]	97.5
CC(C)C(=O)Nc1nc2c([nH]c(=O)n2[C@H]2C[C@@H](O)[C@@H](CO)O2)c(=O)[nH]1 [CBK201202]	98.4
N#Cc1cn([C@@H]2O[C@H](CO)[C@H](O)C2O)c2ncnc(N)c12 (stereo partly drawn) [CBK201204]	18
C#Cc1cn([C@H]2C[C@@H](O)[C@@H](CO)O2)c(=O)[nH]c1=O [CBK201207]	87.8
O=c1ccn([C@@H]2O[C@H](CO)[C@H](O)C2O)c(=S)[nH]1 (stereo partly drawn) [CBK201210]	91.8
Nc1nc2c(ncn2[C@H]2C[C@@H](O)[C@@H](CO)O2)c(=S)[nH]1 [CBK201213]	59.3
Cn1c(N)nc2c(ncn2[C@H]2C[C@@H](O)[C@@H](CO)O2)c1=O [CBK201215]	105
Nc1nc2nn([C@H]3C[C@@H](O)[C@@H](CO)O3)cc2c(=O)[nH]1 [CBK201218]	90.3
Nc1ncnc2c1nc(N)n2[C@H]1C[C@@H](O)[C@@H](CO)O1 [CBK201222]	101
Nc1nc2c(cnn2[C@H]2C[C@@H](O)[C@@H](CO)O2)c(=O)[nH]1 [CBK201223]	101
Nc1ncnc2c1nnn2[C@@H]1O[C@H](CO)[C@H](O)C1O (stereo partly drawn) [CBK201228]	30

Compound	viability at 28.5 h, 10 µM [%]
O=[N+]([O-])c1ccn(C2CC(O)C(CO)O2)c1 (stereo not drawn) [CBK201229]	83.7
O=C(/C=C/c1cn(C2OC(CO)C(O)C2O)c(=O)[nH]c1=O)NCCCCCCNC(=O)C(F)(F)F (stereo not drawn) [CBK201231]	99.1
Cc1cn([C@H]2C[C@@H](O)[C@@H](CO)O2)c(=O)nc1-n1cncn1 [CBK201235]	82.9
O=c1[nH]c(=O)n([C@H]2C[C@@H](O)[C@@H](CO)O2)cc1CCO [CBK201239]	99.6
Nc1ncnc2c1nc(Br)n2[C@H]1C[C@@H](O)[C@@H](CO)O1 [CBK201240]	103
COC1C(O)C(CO)OC1n1cnc2c(N)nc(N)nc21 (stereo not drawn) [CBK201241]	95.4
O=c1[nH]cnc2c([C@@H]3O[C@H](CO)[C@H](O)C3O)n[nH]c12 (stereo partly drawn) [CBK201242]	98.1
OC[C@H]1O[C@@H](n2cnc3cncnc32)C[C@H]1O [CBK201243]	113
COC(=O)/C=C/c1cn(C2CC(O)C(CO)O2)c(=O)[nH]c1=O (stereo not drawn) [CBK201244]	105
O=c1[nH]cnc2c1cnn2[C@@H]1O[C@H](CO)[C@H](O)C1O (stereo partly drawn) [CBK201245]	95.8
Nc1ncc([C@H]2C[C@@H](O)[C@@H](CO)O2)c(=O)[nH]1 [CBK201246]	79.8
Nc1nc2c(nc(OCc3ccccc3)n2C2OC(CO)C(O)C2O)c(=O)[nH]1 (stereo not drawn) [CBK201247]	80.6
O=C(Nc1ncnc2c1[nH]c(=O)n2C1CC(O)C(CO)O1)c1ccccc1 (stereo not drawn) [CBK201250]	94.6
COC1C(O)C(CO)OC1n1cc(C)c(=O)[nH]c1=O (stereo not drawn) [CBK201251]	103
Nc1ncnc2c1nc1n2[C@H]2C[C@@H](O)[C@@H](C1)O2 [CBK201254]	102
Nc1ncnc2c1ccn2[C@H]1C[C@@H](O)[C@@H](CO)O1 [CBK201258]	95.5
Nc1ncnc2c1nc1n2[C@H]2C[C@@H](O)[C@H](O2)C1=O [CBK201259]	98.2
N#CCCSc1ccn(C2CC(O)C(CO)O2)c(=O)n1 (stereo not drawn) [CBK201261]	97.9
Nc1cccc(-c2cn([C@H]3C[C@@H](O)[C@@H](CO)O3)c(=O)[nH]c2=O)c1 [CBK201262]	94.4
OC[C@H]1OCC[C@H]1O [CBK201263]	113
OC[C@H]1O[C@@H](n2cnc3c(Cl)ncnc32)C(O)[C@H]1O (stereo partly drawn) [CBK201266]	99.1

Compound	viability at 28.5 h, 10 µM [%]
Cc1cn([C@@H]2O[C@H](CO)[C@H](O)C2O)c(=O)nc1N (stereo partly drawn) [CBK201268]	105
Nc1nc2c([nH]c(=O)n2[C@H]2C[C@@H](O)[C@@H](CO)O2)c(=O)[nH]1 [CBK201269]	94.7
O=C(O)/C=C/c1cn([C@@H]2O[C@H](CO)[C@H](O)C2O)c(=O)[nH]c1=O (stereo partly drawn) [CBK201270]	96.7
Cn1cc([C@H]2C[C@@H](O)[C@@H](CO)O2)c(=O)n(C)c1=O [CBK201272]	97.3
OC[C@H]1O[C@@H](n2cnc3c(Cl)nccc32)C[C@H]1O [CBK201273]	88.5
Nc1ccn([C@H]2C[C@@H](O)[C@@H](CO)O2)c(=O)n1 [CBK201274]	96.2
Nc1nc(N)c2ncn([C@@H]3O[C@H](CO)[C@H](O)C3O)c2n1 (stereo partly drawn) [CBK201275]	102
CN(C)/C=N/c1nc2c(ccn2C2CC(O)C(CO)O2)c(=O)[nH]1 (stereo not drawn) [CBK201276]	107
Cn1c(=O)ccn([C@@H]2O[C@H](CO)[C@H](O)C2O)c1=O (stereo partly drawn) [CBK201281]	104
Cc1ccc(S(=O)(=O)OC[C@H]2O[C@@H](n3ccc(=O)[nH]c3=O)C[C@H]2O)cc1 [CBK201283]	95.7
Nc1ncnc2c1[nH]c(=O)n2[C@H]1C[C@@H](O)[C@@H](CO)O1 [CBK201284]	98.3
Cc1cc2cn([C@H]3C[C@@H](O)[C@@H](CO)O3)c(=O)nc2o1 [CBK201287]	96
O=C(Nc1ncnc2c1ccn2C1CC(O)C(CO)O1)c1ccccc1 (stereo not drawn) [CBK201289]	96.3
Nc1nc(Cl)c2ncn([C@@H]3O[C@H](CO)[C@H](O)C3O)c2n1 (stereo partly drawn) [CBK201291]	81
Nc1nc2c(ncn2[C@H]2C[C@@H](O)[C@@H](CO)O2)c(=O)[nH]1 [CBK201294]	98.1
O=C(NC/C=C/c1cn(C2OC(CO)C(O)C2O)c(=O)[nH]c1=O)C(F)(F)F (stereo not drawn) [CBK201298]	104
C=CCOc1nc2c(=O)[nH]c(/N=C/N(C)C)nc2n1C1CC(O)C(CO)O1 (stereo not drawn) [CBK201299]	93.3
CN1N=C(N)c2cn([C@@H]3O[C@H](COP(=O)(O)O)[C@H](O)C3O)c3ncnc1c23 (stereo partly drawn) [CBK201301]	73.9
Nc1ncc2ncn([C@H]3C[C@@H](O)[C@@H](CO)O3)c2n1 [CBK201303]	102
Nc1ncnc2c1nc1n2[C@@H]2O[C@@H]([C@H](O)C2O)[C@H]1O (stereo partly drawn) [CBK201305]	98.1
Nc1nc(=O)n([C@@H]2O[C@H](CO)[C@H](O)C2O)cc1I (stereo partly drawn) [CBK201306]	107

Compound	viability at 28.5 h, 10 µM [%]
Cc1cn([C@H]2C[C@@H](O)[C@@H](CO)O2)c(=O)nc1N [CBK201307]	100
Nc1nc(Cl)c2ccn([C@H]3C[C@@H](O)[C@@H](CO)O3)c2n1 [CBK201309]	92.4
Cn1cnc2c(ncn2C2OC(CO)C(O)C2O)c1=N (stereo not drawn) [CBK201313]	102
COc1nc(N)nc2c1ncn2C1CC(O)C(CO)O1 (stereo not drawn) [CBK201314]	89.4
Cc1cn([C@H]2C[C@@H](O)[C@@H](CN)O2)c(=O)[nH]c1=O [CBK201315]	96.2
O=c1ccn([C@H]2C[C@@H](O)[C@@H](CO)O2)c(=O)[nH]1 [CBK201316]	98.3
CN(C)/C=N/c1nc2c(nc(Br)n2C2CC(O)C(CO)O2)c(=O)[nH]1 (stereo not drawn) [CBK201319]	84.7
Cc1cn([C@H]2C[C@@H](O)[C@@H](CO)O2)c(=O)n(CCC#N)c1=O [CBK201322]	98.4
Nc1nc(=O)[nH]c2c1ncn2[C@H]1C[C@@H](O)[C@@H](CO)O1 [CBK201323]	86
COC1C(O)C(CO)OC1n1cnc2c(=O)[nH]c(N)nc21 (stereo not drawn) [CBK201324]	96.2
Nc1ncnc2c1cnn2[C@H]1C[C@@H](O)[C@@H](CO)O1 [CBK201325]	98
Nc1ncn([C@H]2C[C@@H](O)[C@@H](CO)O2)c(=O)n1 [CBK201329]	92.8
CN(C)/C=N/c1nc(=O)n([C@H]2CC(O)[C@@H](CO)O2)cc1/C=C/C(=O)NCCCCCCNC(=O)C(F)(F)F (stereo partly drawn) [CBK201330]	97.1
Nc1nc2c(nc(Br)n2[C@H]2C[C@@H](O)[C@@H](CO)O2)c(=O)[nH]1 [CBK201333]	108
CCOc1nc(=O)c(C)cn1C1CC(O)C(CO)O1 (stereo not drawn) [CBK201334]	96.5
CONc1nc(/N=C/N(C)C)nc2c1ncn2C1CC(O)C(CO)O1 (stereo not drawn) [CBK201335]	92.7
COCC1OC(n2cc(C)c(=O)[nH]c2=O)CC1O (stereo not drawn) [CBK201338]	94.5
Nc1ncnc2c1ncn2[C@H]1C[C@@H](O)[C@@H](CO)O1 [CBK201382]	94.9
Cc1nc(COc2ccccc2)sc1C(=O)N1CCC(C(N)=O)CC1 [CBK202603]	103
O=C(O)CN1C(=O)[C@@H]2Cc3ccccc3CN2C1=O [CBK202728]	82.8
CC(=O)Nc1sc2c(c1-c1nc3ccccc3s1)CCN(C(C)C)C2 [CBK211288]	3.98

From article PMC12040169 (PLOS Biology, 2025)
